Measurements: PMC4840262 (Mutagenesis, 2015)
Counter-ions that a name gives are not always drawn. Like-named read-outs stand apart in the source and are kept apart here. Marks after values point to notes of the source that are not given here.

Columns and labels:
[1] = tested on: CHO-K1 cells; settings: Chinese hamster
[2] = tested on: CHO-K1 cells; settings: cited from earlier work
[3] = tested on: human lymphocytes
[4] = tested on: human lymphocytes; remark: listed apart in the source
[5] = tested on: rats; settings: cited from earlier work
[6] = tested on: mice; settings: cited from earlier work
[7] = humans, 100mg once or twice a day for 3 days, original commercial oral GI formulation; cited from earlier work
[8] = in vitro; settings: male, human, Cytotoxicity (%)
[9] = tested on: Bacillus subtilis; settings: cited from earlier work
[10] = type: in vivo; settings: rat, plasma, po
[11] = Wistar rat, oral dose of 40mg/kg, microsuspension, after 4h; cited from earlier work
[12] = tested on: bacteria (Ames test); settings: cited from earlier work
[13] = female, Han Wistar [Cr1 WI(Han)], rat, in vivo, po, 400 mg/kg
[14] = tested on: Saccharomyces cerevisiae; settings: cited from earlier work
[15] = tested on: mouse bone marrow; settings: in vivo, po; cited from earlier work
[16] = tested on: CHL cells; settings: cited from earlier work
[17] = tested on: Drosophila melanogaster; settings: in vivo; cited from earlier work
[18] = tested on: mice; settings: mouse, in vivo; cited from earlier work
[19] = tested on: bone marrow polychromatic erythrocytes (PCE); settings: female, rat, in vivo; for % Micronucleated PCE / % PCE: Han Wistar [Crl:WI(Han)], po
[20] = tested on: C3H/10T1/2 Cl 8 mouse embryo fibroblasts; settings: cited from earlier work
[21] = human PK studies, high therapeutic doses; cited from earlier work

## CCC[S+]([O-])c1ccc2[nH]c(NC(=O)OC)nc2c1 (stereo not drawn) [Albendazole sulfoxide, albendazole sulfoxide]
[1]
  BMD10: 1.100 µg/mL
  BMDL10: 0.861 µg/mL
[2]
  Td (threshold dose): 1.708 µg/mL
  Td–L–CI (lower confidence Td): 1.474 µg/mL
[3]; male, human
  Lowest non-significant doses (micronuclei): 3.0 µg per ml
[4]; male, human
  %C+ micronuclei: 71%
  %C− micronuclei: 29%

## CCCSc1ccc2nc(NC(=O)OC)[nH]c2c1 [Albendazole, albendazole]
[5]; lifetime studies in the rat
  Carcinogenicity (in words): negative
[1]
  BMD10: 0.037 µg/mL
  BMDL10: 0.027 µg/mL
[2]
  Td (threshold dose): 0.005 µg/mL
  Td–L–CI (lower confidence Td): 0.003 µg/mL
[3]; male, human
  Fold increases in MN over concurrent vehicle control: 9.3
  Lowest non-significant doses (micronuclei): 0.04 µg per ml
[4]; male, human
  %C+ micronuclei: 72%
  %C− micronuclei: 28%
[6]; lifetime studies in the mouse
  Carcinogenicity (in words): negative

## CCCCNC(=O)n1c(NC(=O)OC)nc2ccccc21 [Benomyl, benomyl]
[1]
  BMD10: 0.450 µg/mL
  BMDL10: 0.348 µg/mL
[2]
  Td (threshold dose): 0.659 µg/mL
  Td–L–CI (lower confidence Td): 0.520 µg/mL

## COC(=O)Nc1nc2ccccc2[nH]1 [Carbendazim, carbendazim]
[1]
  BMD10: 0.310 µg/mL
  BMDL10: 0.235 µg/mL
[2]
  Td (threshold dose): 0.346 µg/mL
  Td–L–CI (lower confidence Td): 0.268 µg/mL

## O=P1(N(CCCl)CCCl)NCCCO1 (stereo not drawn) [Cyclophosphamide, cyclophosphamide]
[3]; male, human
  Fold increases in MN over concurrent vehicle control: 5.6
  Mean MNBN cell frequency (%): 1.40* %
[4]; male, human
  % micronuclei with a centromere: 16%
  % micronuclei without a centromere: 84%

## COC(=O)Nc1nc2cc(C(=O)c3ccc(F)cc3)ccc2[nH]1 [Flubendazole, flubendazole]
[7]
  Plasma Cmax: < 1 ng/mL
[8]; 0.050 µg/ml
  cytotoxicity: 0%
[8]; 0.075 µg/ml
  cytotoxicity: 0%
[8]; 0.100 µg/ml
  cytotoxicity: 0%
[8]; 0.250 µg/ml
  cytotoxicity: 0%
[8]; 0.5 µg/ml
  cytotoxicity: 4%
[8]; 0.500 µg/ml
  cytotoxicity: 0%
[8]; 1.0 µg/ml
  cytotoxicity: 0%
[8]; 1.00 µg/ml
  cytotoxicity: 16%
[8]; 2.0 µg/ml
  cytotoxicity: 0%
[8]; 3.0 µg/ml
  cytotoxicity: 0%
[8]; 6.0 µg/ml
  cytotoxicity: 0%
[8]; 6.5 µg/ml
  cytotoxicity: 43%
[8]; 7.5 µg/ml
  cytotoxicity: 8%
[8]; 9.0 µg/ml
  cytotoxicity: 26%
[8]; 10.0 µg/ml
  cytotoxicity: 0%
[8]; 12.0 µg/ml
  cytotoxicity: 0%
[8]; 14.0 µg/ml
  cytotoxicity: 14%
[8]; 16.0 µg/ml
  cytotoxicity: 4%
[8]; 19.0 µg/ml
  cytotoxicity: 7%
[8]; 25.0 µg/ml
  cytotoxicity: 12%
[5]; formulated diet, doses equivalent to a maximum of 20mg/kg in rats
  Carcinogenicity (in words): Neither showed evidence of carcinogenicity
[9]
  Induction of DNA repair (in words): negative
[10]; 65 mg/kg
  AUC(0-t): 15100 ng·h/mL
  Cmax: 910 ng/mL
[10]; 130 mg/kg
  AUC(0-t): 16500 ng·h/mL
  Cmax: 900 ng/mL
[10]; 402 mg/kg
  AUC(0-t): 24900 ng·h/mL
  Cmax: 1330 ng/mL
[11]
  Plasma levels of flubendazole: 81 ng/mL
[12]
  Ames bacterial mutation test result (in words): negative
[1]
  BMD10: 0.019 µg/mL
  BMDL10: 0.013 µg/mL
[2]
  Td (threshold dose): 0.028 µg/mL
  Td–L–CI (lower confidence Td): 0.025 µg/mL
[13]
  Mean plasma concentration: 610 ng/mL
[14]
  Mutation test result (in words): negative
[15]
  Bone marrow micronucleus test result (in words): negative
[16]
  Polyploidy (in words): induce polyploidy
[3]; 0.050 µg/ml
  Mean MNBN cell frequency (%): 0.10%
[3]; 0.075 µg/ml
  Mean MNBN cell frequency (%): 0.30%
[3]; 0.100 µg/ml
  Mean MNBN cell frequency (%): 0.55%
[3]; 0.250 µg/ml
  Mean MNBN cell frequency (%): 1.15* %
[3]; 0.5 µg/ml
  Mean MNBN cell frequency (%): 1.75* %
[3]; 0.500 µg/ml
  Mean MNBN cell frequency (%): 3.15* %
[3]; 1.0 µg/ml
  Mean MNBN cell frequency (%): 3.38* %
[3]; 1.00 µg/ml
  Mean MNBN cell frequency (%): 4.25* %
[3]; 2.0 µg/ml
  Mean MNBN cell frequency (%): 0.05%
[3]; 3.0 µg/ml
  Mean MNBN cell frequency (%): 5.15* %
[3]; 6.0 µg/ml
  Mean MNBN cell frequency (%): 0.85* %
[3]; 6.5 µg/ml
  Mean MNBN cell frequency (%): 10.10* %
[3]; 7.5 μg/ml
  Fold increases in MN over concurrent vehicle control: 7.2
  Mean MNBN cell frequency (%): 1.65* %
[3]; 9.0 μg/ml
  Fold increases in MN over concurrent vehicle control: 28.5
  Mean MNBN cell frequency (%): 6.55* %
[3]; 10.0 µg/ml
  Mean MNBN cell frequency (%): 0.25%
[3]; 12.0 µg/ml
  Mean MNBN cell frequency (%): 0.20%
[3]; 14.0 µg/ml
  Mean MNBN cell frequency (%): 0.65* %
[3]; 16 μg/ml
  Fold increases in MN over concurrent vehicle control: 3.6
[3]; 16.0 µg/ml
  Mean MNBN cell frequency (%): 0.90* %
[3]; 19.0 µg/ml
  Mean MNBN cell frequency (%): 0.55* %
[3]; 25 μg/ml
  Fold increases in MN over concurrent vehicle control: 11.5
[3]; 25.0 µg/ml
  Mean MNBN cell frequency (%): 2.88* %
[3]; male, human
  Lowest dose where a statistically significant increase in micronuclei was observed: 0.25 µg/mL
  Lowest non-significant doses (micronuclei): 0.1 µg per ml
  Lowest tested concentration, statistically significant increases in micronuclei evident: 0.5 µg/mL
[17]
  Mutation test result (in words): negative
[18]
  Induction of dominant lethal mutations (in words): negative
[4]
  Mode of action of micronucleus induction (in words): acts as an aneugen
[4]; 7.5 μg/ml
  % micronuclei with a centromere: 80%
  % micronuclei without a centromere: 20%
[4]; 9.0 μg/ml
  % micronuclei with a centromere: 88%
  % micronuclei without a centromere: 12%
[4]; 16 μg/ml
  % micronuclei with a centromere: 83%
  % micronuclei without a centromere: 17%
[4]; 25 μg/ml
  % micronuclei with a centromere: 86%
  % micronuclei without a centromere: 14%
[4]; male, human
  %C− micronuclei: 30%
[19]; Han Wistar [Cr1 WI(Han)]
  Revised RfD: 140.62 mg/subject/day
[19]; 65 mg/kg
  % Micronucleated PCE: 1.35* %
  % PCE: 31.74%
[19]; 130 mg/kg
  % Micronucleated PCE: 2.31* %
  % PCE: 33.00%
[19]; 400 mg/kg
  % Micronucleated PCE: 1.94* %
[20]
  Morphological transformation (in words): morphological transformation
[6]; formulated diet, doses equivalent to a maximum of 30mg/kg in mice
  Carcinogenicity (in words): Neither showed evidence of carcinogenicity

## COC(=O)Nc1nc2ccc(C(=O)c3ccccc3)cc2[nH]1 [Mebendazole, mebendazole]
[1]
  BMD10: 0.024 µg/mL
  BMDL10: 0.018 µg/mL
[21]
  Oral bioavailability: around 2%

## CO[C@@]12[C@H](COC(N)=O)C3=C(C(=O)C(C)=C(N)C3=O)N1C[C@@H]1N[C@@H]12 [Mitomycin C, mitomycin C]
[3]; male, human
  Mean MNBN cell frequency (%): 8.70* %

## CCCOc1ccc2nc(NC(=O)OC)[nH]c2c1 [Oxibendazole, oxibendazole]
[1]
  BMD10: 0.015 µg/mL
  BMDL10: 0.010 µg/mL
[2]
  Td (threshold dose): 0.032 µg/mL
  Td–L–CI (lower confidence Td): 0.032 µg/mL

## COC(=O)Nc1nc2ccc([C@H](O)c3ccc(F)cc3)cc2[nH]1 [R-reduced flubendazole]
[3]
  Cytotoxicity (%): 3.0%
  Lowest dose, significant increase in micronuclei seen: 1.1 µg per ml

## COC(=O)Nc1nc2ccc(C(O)c3ccc(F)cc3)cc2[nH]1 (stereo not drawn) [S-reduced flubendazole]
[3]
  Cytotoxicity (%): 0.0%

## CC[C@]1(O)C[C@@H]2CN(CCc3c([nH]c4ccccc34)[C@@](C(=O)OC)(c3cc4c(cc3OC)N(C)[C@H]3[C@@](O)(C(=O)OC)[C@H](OC(C)=O)[C@]5(CC)C=CCN6CC[C@]43[C@@H]65)C2)C1 [Vinblastine, vinblastine sulfate]
[3]; 0.12 μg/ml
  Fold increases in MN over concurrent vehicle control: 56.6
[3]; male, human
  Frequency of micronucleated binucleate cells (%): 9.25* %

## c1ccc2[nH]c(-c3cscn3)nc2c1 [thiabendazole]
[2]
  MNBN induction in CHO-K1 cells (in words): inactive
